#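 Five concentrations, 48 hours, 96-well plates. GI50 = concentration required for 50% inhibition of growth.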 Calls of active or inactive are those of the source. No stated cut-off is given here; in the data, active = GI50 up to about 1.1 µM and inactive = higher.
# How the values were obtained:
# Test in all cases: growth of human tumour cells (NCI), 48 h
# ACHN = test system: ACHN
# BT-549 = test system: BT-549
# DU-145 = test system: DU-145
# HCT-116 = test system: HCT-116
# HCT-15 = test system: HCT-15
# HL-60 = test system: HL-60
# HOP-92 = test system: HOP-92
# LOX IMVI = test system: LOX IMVI
# MDA-N = test system: MDA-N
# Malme-3M = test system: Malme-3M
# NCI-H226 = test system: NCI-H226
# OVCAR-4 = test system: OVCAR-4
# PC-3 = test system: PC-3
# RPMI-8226 = test system: RPMI-8226
# RXF 393 = test system: RXF 393
# SN12C = test system: SN12C
# SNB-75 = test system: SNB-75
# M14 = test system: M14
# T47D = test system: T47D
SMILES,GI50 (ACHN),GI50 (BT-549),GI50 (DU-145),GI50 (HCT-116),GI50 (HCT-15) [µM],GI50 (HL-60),GI50 (HOP-92),GI50 (LOX IMVI),GI50 (MDA-N),GI50 (Malme-3M),GI50 (NCI-H226),GI50 (OVCAR-4),GI50 (PC-3),GI50 (RPMI-8226),GI50 (RXF 393),GI50 (SN12C),GI50 (SNB-75),GI50 (M14),GI50 (T47D)
CCNC(=O)c1c(O)nc2ccccc2c1O,40.5 µM (inactive),78.2 µM (inactive),80.9 µM (inactive),51.1 µM (inactive),29,35.6 µM (inactive),75.3 µM (inactive),51.5 µM (inactive),84.9 µM (inactive),> 100 µM (inactive),> 100 µM (inactive),70.6 µM (inactive),49.9 µM (inactive),17.6 µM (inactive),22.1 µM (inactive),67.6 µM (inactive),> 100 µM (inactive),,
C[C@]12CC[C@@H]3c4ccc(O)cc4CC[C@H]3[C@@H]1C/C(=C\c1ccncc1)C2=O,20.1 µM (inactive),,12.1 µM (inactive),,7.29,10.6 µM (inactive),23.1 µM (inactive),20.7 µM (inactive),11.3 µM (inactive),14.1 µM (inactive),19.3 µM (inactive),15.6 µM (inactive),11.6 µM (inactive),8.53 µM (inactive),20.4 µM (inactive),,> 100 µM (inactive),20.4 µM (inactive),27.2 µM (inactive)
Nc1nc(N)c2cc(Sc3ccc4nc(N)nc(N)c4c3)ccc2n1,0.493 µM (active),> 100 µM (inactive),1.13 µM (inactive),0.2 µM (active),0.659,0.0533 µM (active),> 100 µM (inactive),0.0408 µM (active),> 100 µM (inactive),,> 29.2 µM (inactive),> 100 µM (inactive),,4.89 µM (inactive),> 100 µM (inactive),,> 100 µM (inactive),> 100 µM (inactive),> 44.2 µM (inactive)
COC(=O)CC(CC(=O)C(=O)OC)C(=O)OC (stereo not given),> 100 µM (inactive),,,> 100 µM (inactive),> 100,> 100 µM (inactive),> 100 µM (inactive),> 100 µM (inactive),,> 100 µM (inactive),> 100 µM (inactive),,,> 100 µM (inactive),> 100 µM (inactive),> 100 µM (inactive),> 100 µM (inactive),> 100 µM (inactive),
O=[N+]([O-])c1cccc2nc3ccccc3c(NCCNCCO)c12,0.00875 µM (active),0.00542 µM (active),0.00288 µM (active),0.0197 µM (active),0.0405,0.0177 µM (active),0.00365 µM (active),0.00413 µM (active),,0.00877 µM (active),0.0166 µM (active),0.00335 µM (active),0.00245 µM (active),0.00383 µM (active),0.00513 µM (active),0.0122 µM (active),0.0188 µM (active),0.011 µM (active),0.00819 µM (active)
CC1(O)OC(=O)C2=C1CCC1C2CCC2(C)C(O)CCC12 (stereo not given),> 100 µM (inactive),> 100 µM (inactive),> 100 µM (inactive),> 100 µM (inactive),> 100,> 100 µM (inactive),> 100 µM (inactive),25.6 µM (inactive),> 100 µM (inactive),> 100 µM (inactive),> 100 µM (inactive),> 100 µM (inactive),,> 100 µM (inactive),,> 100 µM (inactive),,> 100 µM (inactive),> 100 µM (inactive)
Cc1cccc(/C=N\NC(=S)N2CCCCC2)n1,0.159 µM (active),,0.362 µM (active),< 0.01 µM (active),0.0371,0.0112 µM (active),0.474 µM (active),0.0681 µM (active),0.306 µM (active),0.867 µM (active),0.184 µM (active),< 0.01 µM (active),0.0435 µM (active),0.0128 µM (active),0.145 µM (active),0.181 µM (active),0.611 µM (active),< 0.01 µM (active),< 0.01 µM (active)
CCCn1c(=O)c(N2CCN(c3ccccc3)CC2)nc2sc3ccccc3c21,> 100 µM (inactive),97.3 µM (inactive),> 100 µM (inactive),> 100 µM (inactive),> 100,49.7 µM (inactive),> 100 µM (inactive),> 100 µM (inactive),> 100 µM (inactive),> 100 µM (inactive),,> 100 µM (inactive),> 100 µM (inactive),,,> 100 µM (inactive),> 100 µM (inactive),> 100 µM (inactive),> 100 µM (inactive)
O=c1cc(-c2ccncc2)[nH]c2cc3c(cc12)OCO3,> 100 µM (inactive),,> 100 µM (inactive),97.3 µM (inactive),> 100,,> 100 µM (inactive),,> 100 µM (inactive),,> 100 µM (inactive),> 100 µM (inactive),,> 100 µM (inactive),> 100 µM (inactive),> 100 µM (inactive),49.7 µM (inactive),> 100 µM (inactive),> 100 µM (inactive)
Cc1cc(NC(=S)SCc2ccc(F)cc2)c([N+](=O)[O-])cc1C,32.4 µM (inactive),28.2 µM (inactive),32.2 µM (inactive),26.2 µM (inactive),18.3,16.9 µM (inactive),18.4 µM (inactive),,,25.6 µM (inactive),16.6 µM (inactive),30.9 µM (inactive),42.2 µM (inactive),,22.9 µM (inactive),19.4 µM (inactive),46.9 µM (inactive),35.5 µM (inactive),48.8 µM (inactive)
Fc1ccccc1C1CC(C(c2ccccc2)c2ccccc2)=Nc2ccccc2S1 (stereo not given),11.7 µM (inactive),,,,5.78,2.55 µM (inactive),,5.78 µM (inactive),,16 µM (inactive),13 µM (inactive),10.9 µM (inactive),,3.6 µM (inactive),4.63 µM (inactive),10.2 µM (inactive),1.13 µM (inactive),11.9 µM (inactive),
Clc1ccc(C(SCc2ccccc2)SCc2ccccc2)cc1,> 10 µM (inactive),,> 10 µM (inactive),> 10 µM (inactive),> 10,> 10 µM (inactive),> 10 µM (inactive),> 10 µM (inactive),> 10 µM (inactive),> 10 µM (inactive),> 10 µM (inactive),> 10 µM (inactive),> 10 µM (inactive),> 10 µM (inactive),> 10 µM (inactive),> 10 µM (inactive),> 10 µM (inactive),> 10 µM (inactive),> 10 µM (inactive)
CC1(C)[C@@H]2CC[C@]1(C)[C@H](OC(=O)/C=C/c1ccccc1)C2,18 µM (inactive),21.9 µM (inactive),19.4 µM (inactive),18.4 µM (inactive),17.6,18.4 µM (inactive),,21.3 µM (inactive),31.3 µM (inactive),17.3 µM (inactive),20.8 µM (inactive),22 µM (inactive),23.4 µM (inactive),,16.9 µM (inactive),18.8 µM (inactive),16.2 µM (inactive),29.9 µM (inactive),15.9 µM (inactive)
CC1C(C)(C)C23CC12C1(OCCO1)C3Br (stereo not given),> 100 µM (inactive),> 100 µM (inactive),> 100 µM (inactive),> 100 µM (inactive),> 100,> 100 µM (inactive),,> 100 µM (inactive),> 100 µM (inactive),> 100 µM (inactive),> 100 µM (inactive),> 100 µM (inactive),> 100 µM (inactive),> 100 µM (inactive),> 100 µM (inactive),> 100 µM (inactive),> 100 µM (inactive),> 100 µM (inactive),
CC(C)(C)[Si](C)(C)OCC1OC(n2cnc3c(NC(=O)c4ccccc4)ncnc32)CC1O (stereo not given),31.4 µM (inactive),,64 µM (inactive),29.7 µM (inactive),51.1,28 µM (inactive),23.5 µM (inactive),18.7 µM (inactive),,30.5 µM (inactive),24.5 µM (inactive),24 µM (inactive),37.5 µM (inactive),21.8 µM (inactive),22.3 µM (inactive),33.4 µM (inactive),26.7 µM (inactive),19.9 µM (inactive),30.2 µM (inactive)
c1ccc(C(NC2=NCCO2)C2CC2)cc1 (stereo not given),> 100 µM (inactive),,> 100 µM (inactive),82.8 µM (inactive),> 100,,> 100 µM (inactive),> 100 µM (inactive),> 100 µM (inactive),> 100 µM (inactive),> 100 µM (inactive),> 100 µM (inactive),> 100 µM (inactive),> 100 µM (inactive),> 100 µM (inactive),> 100 µM (inactive),> 100 µM (inactive),> 100 µM (inactive),> 100 µM (inactive)
Cc1nc2c(sc(=S)n2-c2ccccc2)c(=O)[nH]1,> 100 µM (inactive),,,> 100 µM (inactive),,> 100 µM (inactive),> 100 µM (inactive),,,> 100 µM (inactive),> 100 µM (inactive),,,> 100 µM (inactive),,,,,
O=c1c(-c2ccc(O)cc2)coc2cc(O)cc(O)c12 [GENISTEIN],29.7 µM (inactive),88.3 µM (inactive),92.5 µM (inactive),,72.9,69.8 µM (inactive),> 100 µM (inactive),,> 100 µM (inactive),> 100 µM (inactive),74.1 µM (inactive),> 100 µM (inactive),> 100 µM (inactive),77.8 µM (inactive),,52.5 µM (inactive),,> 100 µM (inactive),> 100 µM (inactive)
